Patent publication US8629149B2, “Oxopiperazine derivatives for the treatment of pain and epilepsy” (Zalicus Pharmaceuticals Ltd., priority 2009, dated 2014)

How the values were obtained:
[1] = Rat Early Pharmacokinetic (EPK) study; type: in vivo; details: 30 mg/kg PO, 0.5% CMC; for Tmax: male, Sprague-Dawley, blood
Method: Male Sprague-Dawley rats were dosed via oral (PO) gavage in the detailed formulation. Blood samples were collected from the animals at 6 timepoints out to 4 hours post-dose. Pharmacokinetic analysis was performed on the LC-MS/MS measured concentrations for each timepoint of each compound.

SNL L5/L6 rats = assay: L5/L6 spinal nerve ligation (SNL) Chung pain model, tactile allodynia (von Frey); type: in vivo, rat; details: for Rat SNL tactile allodynia, anti-allodynia (statement): compared to baseline and post-SNL
Description: The Spinal Nerve Ligation is an animal model representing peripheral nerve injury generating a neuropathic pain syndrome. In this model experimental animals develop the clinical symptoms of tactile allodynia and hyperalgesia. L5/L6 Spinal nerve ligation (SNL) injury was induced using the procedure of Kim and Chung (Kim et al., Pain 50:355-363 (1992)) in male Sprague-Dawley rats (Harlan; Indianapolis, Ind.) weighing 200 to 250 grams.
Anaesthesia was induced with 2% isofluorane in O2 at 2 L/min and maintained with 0.5% isofluorane in O2. Rats were then shaved and aseptically prepared for surgeries. A 2 cm paraspinal incision was made at the level of L4-S2. L4/L5 was exposed by removing the transverse process above the nerves with a small rongeur. The L5 spinal nerve is the larger of the two visible nerves below the transverse process and lies closest to the spine. The L6 spinal nerve is located beneath the corner of the slope bone. A home-made glass Chung rod was used to hook L5 or L6 and a pre-made slip knot of 4.0 silk suture was placed on the tip of the rod just above the nerve and pulled underneath to allow for the tight ligation. The L5 and L6 spinal nerves were tightly ligated distal to the dorsal root ganglion. The incision was closed, and the animals were allowed to recover for 5 days.
Sham control rats underwent the same operation and handling as the experimental animals, but without SNL.
Prior to initiating drug delivery, baseline behavioural testing data is obtained. At selected times after infusion of the Test or Control Article behavioural data can then be collected again.
The assessment of tactile allodynia consisted of measuring the withdrawal threshold of the paw ipsilateral to the site of nerve injury in response to probing with a series of calibrated von Frey filaments (innocuous stimuli). Animals were acclimated to the suspended wire-mesh cages for 30 min before testing. Each von Frey filament was applied perpendicularly to the plantar surface of the ligated paw of rats for 5 sec. A positive response was indicated by a sharp withdrawal of the paw. For rats, the first testing filament is 4.31. Measurements were taken before and after administration of test articles. […] The protocol was repeated until three changes in behaviour were determined (“up and down” method) (Chaplan et al., J. Neurosci. Methods 53:55-63 (1994)). The 50% paw withdrawal threshold was determined as (10^[Xf+kδ])/10,000, where Xf=the value of the last von Frey filament employed, k=Dixon value for the positive/negative pattern, and δ=the logarithmic difference between stimuli. The cut-off values for rats were no less than 0.2 g and no higher than 15 g (5.18 filament); for mice no less than 0.03 g and no higher than 2.34 g (4.56 filament). A significant drop of the paw withdrawal threshold compared to the pre-treatment baseline is considered tactile allodynia.
Rat SNL tactile allodynia were tested for Compounds 1-4 and 9-12 at 60 minutes compared to baseline and post-SNL. […] FIG. 1 is a plot of the antiallodynic effects of compound 4 (i.p.) tested in SNL L5/L6 rats using von Frey at three different doses, namely 3, 10 and 30 mpk, compared to vehicle alone. […] Rat SNL tactile allodynia were tested at 1, 2 and 4 hours after drug treatment (Table 6).

[2] = biological target: T1, Nav1.7 channels expressed in HEK cells (Homo sapiens, UniProt Q15858); assay: Nav1.7 voltage-clamp electrophysiological assay (enhancement of slow inactivation); type: cell-based; details: n 5 cells
T1 construct: expressed in transfected cells; host or cells: HEK cells
Method: To examine the effects of compounds on enhancement of slow inactivation of Nav1.7 and Nav1.8 channels expressed in HEK cells the culture media was replaced with an extracellular solution containing (in mM): 137 NaCl, 4 KCl, 1.8 CaCl2, 1 MgCl2, 10 HEPES, 10 glucose, pH adjusted to 7.4 with NaOH. The intracellular solution contained (in mM): 130 KCl, 1 MgCl2, 5 EGTA, 10 HEPES, 5 K2ATP, adjusted to pH 7.3 with KOH. Whole-cell recordings, preparation and application of test compounds were performed in a similar manner to the Cav3.2 electrophysiological assays. Voltage protocols were applied to quantify the effects of test compounds to enhance slow inactivation for Nav1.7 and Nav1.8.

T1 sequence (Q15858 whole entry): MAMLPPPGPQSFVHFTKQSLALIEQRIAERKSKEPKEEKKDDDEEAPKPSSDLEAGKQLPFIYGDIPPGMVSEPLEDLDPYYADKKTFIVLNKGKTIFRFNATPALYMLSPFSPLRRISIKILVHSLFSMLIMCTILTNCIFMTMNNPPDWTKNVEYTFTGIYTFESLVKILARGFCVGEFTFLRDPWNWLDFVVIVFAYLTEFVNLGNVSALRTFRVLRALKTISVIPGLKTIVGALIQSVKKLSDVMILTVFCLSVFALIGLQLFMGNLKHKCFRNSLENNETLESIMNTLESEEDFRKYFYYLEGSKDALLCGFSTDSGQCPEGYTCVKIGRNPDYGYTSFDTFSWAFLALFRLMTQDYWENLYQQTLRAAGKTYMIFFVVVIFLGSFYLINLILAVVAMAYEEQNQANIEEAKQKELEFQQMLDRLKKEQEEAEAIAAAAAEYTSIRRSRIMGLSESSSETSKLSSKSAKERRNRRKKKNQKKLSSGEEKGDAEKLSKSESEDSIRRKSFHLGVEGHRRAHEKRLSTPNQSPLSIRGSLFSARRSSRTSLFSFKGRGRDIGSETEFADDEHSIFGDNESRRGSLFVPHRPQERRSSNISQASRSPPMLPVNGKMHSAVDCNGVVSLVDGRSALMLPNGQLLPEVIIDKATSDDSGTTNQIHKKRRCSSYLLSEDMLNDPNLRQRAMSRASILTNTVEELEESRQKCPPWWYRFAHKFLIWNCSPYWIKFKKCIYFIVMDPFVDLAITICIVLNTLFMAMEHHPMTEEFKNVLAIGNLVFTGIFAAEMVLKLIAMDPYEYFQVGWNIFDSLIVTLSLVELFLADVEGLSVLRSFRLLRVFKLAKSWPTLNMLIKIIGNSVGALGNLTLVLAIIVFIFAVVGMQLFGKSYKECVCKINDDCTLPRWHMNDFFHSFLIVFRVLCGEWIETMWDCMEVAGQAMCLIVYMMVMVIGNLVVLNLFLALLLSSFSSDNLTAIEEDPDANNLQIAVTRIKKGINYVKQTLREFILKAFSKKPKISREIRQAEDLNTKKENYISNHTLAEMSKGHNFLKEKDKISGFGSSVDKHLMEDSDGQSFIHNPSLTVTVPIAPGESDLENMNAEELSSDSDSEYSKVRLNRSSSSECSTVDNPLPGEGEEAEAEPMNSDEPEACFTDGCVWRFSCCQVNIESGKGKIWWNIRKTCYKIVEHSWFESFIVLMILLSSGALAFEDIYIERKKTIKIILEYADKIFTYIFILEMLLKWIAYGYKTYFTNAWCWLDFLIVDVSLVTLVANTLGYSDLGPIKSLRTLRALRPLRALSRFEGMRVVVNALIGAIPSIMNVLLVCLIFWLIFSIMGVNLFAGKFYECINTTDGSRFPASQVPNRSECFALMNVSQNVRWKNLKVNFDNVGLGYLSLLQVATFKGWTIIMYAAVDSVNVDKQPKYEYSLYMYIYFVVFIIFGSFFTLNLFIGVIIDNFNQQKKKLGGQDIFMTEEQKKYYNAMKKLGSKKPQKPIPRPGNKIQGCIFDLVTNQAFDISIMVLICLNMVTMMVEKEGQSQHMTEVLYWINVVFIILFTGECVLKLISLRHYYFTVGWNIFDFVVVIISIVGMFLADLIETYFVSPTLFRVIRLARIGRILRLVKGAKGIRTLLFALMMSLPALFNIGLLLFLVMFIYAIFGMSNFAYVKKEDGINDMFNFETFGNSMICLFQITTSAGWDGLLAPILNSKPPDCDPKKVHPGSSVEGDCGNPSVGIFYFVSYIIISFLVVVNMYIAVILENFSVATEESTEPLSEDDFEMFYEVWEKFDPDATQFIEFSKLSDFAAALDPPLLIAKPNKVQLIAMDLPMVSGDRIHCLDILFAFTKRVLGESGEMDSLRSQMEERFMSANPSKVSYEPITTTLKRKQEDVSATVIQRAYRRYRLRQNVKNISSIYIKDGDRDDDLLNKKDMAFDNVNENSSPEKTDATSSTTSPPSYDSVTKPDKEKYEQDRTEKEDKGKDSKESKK

| SMILES | Dose Normalized AUC [1] [nM·h] | Dose Normalized Cmax [1] [nM] | Tmax [1] [min] | Fraction current remaining ([2]; concentration tested 10 μM) | Fraction current remaining ([2]; concentration tested 100 μM) | Rat SNL Tactile Allodynia (% Antiallodynia) (SNL L5/L6 rats; 1 hour after drug treatment) [%] | Rat SNL Tactile Allodynia (% Antiallodynia) (SNL L5/L6 rats; 2 hours after drug treatment) [%] | Rat SNL Tactile Allodynia (% Antiallodynia) (SNL L5/L6 rats; 4 hours after drug treatment) [%] | Rat SNL tactile allodynia, anti-allodynia (statement) (SNL L5/L6 rats) |
| --- | --- | --- | --- | --- | --- | --- | --- | --- | --- |
| O=C1CN(C(=O)C[S+]([O-])C(c2ccccc2)c2ccccc2)CCN1 (centres unmarked) [Compound 2, 4-(2-(benzhydrylsulfinyl)acetyl)piperazin-2-one] | 283 | 182 | 30 | – | – | – | – | – | – |
| O=C1CN(C(=O)CC(c2ccc(F)cc2)c2ccc(F)cc2)CCN1 [Compound 9, 4-(3,3-bis(4-fluorophenyl)propanoyl)piperazin-2-one] | – | – | – | 0.93 | 0.86 | 7 | 10 | 7 | significant anti-allodynia |
| O=C1CN(C(=O)C(c2ccc(Cl)cc2)c2ccc(Cl)cc2)CCN1 [Compound 13, 4-(2,2-bis(4-chlorophenyl)acetyl)piperazin-2-one] | – | – | – | – | – | – | – | – | significant anti-allodynia |
| CC1(C)C(=O)NCCN1C(=O)CC(c1ccc(F)cc1)c1ccc(F)cc1 [Compound 15, 4-(3,3-bis(4-fluorophenyl)propanoyl)-3,3-dimethylpiperazin-2-one] | – | – | – | – | – | 11 | 8 | 15 | – |

Now from value to molecule, other results behind:

| Dose Normalized AUC [1] [nM·h] | Dose Normalized Cmax [1] [nM] | Tmax [1] [min] | Fraction current remaining ([2]; concentration tested 10 μM) | Fraction current remaining ([2]; concentration tested 100 μM) | SMILES | Rat SNL Tactile Allodynia (% Antiallodynia) (SNL L5/L6 rats; 1 hour after drug treatment) [%] | Rat SNL Tactile Allodynia (% Antiallodynia) (SNL L5/L6 rats; 2 hours after drug treatment) [%] | Rat SNL Tactile Allodynia (% Antiallodynia) (SNL L5/L6 rats; 4 hours after drug treatment) [%] | Rat SNL tactile allodynia, anti-allodynia (statement) (SNL L5/L6 rats) |
| --- | --- | --- | --- | --- | --- | --- | --- | --- | --- |
| 993 | 333 | 102 | – | – | O=C1CN(C(=O)NC(c2ccccc2)c2ccccc2)CCN1 [Compound 1, N-benzhydryl-3-oxopiperazine-1-carboxamide] | 10 | 19 | 26 | significant anti-allodynia |
| 1087 | 730 | 30 | – | – | O=C1CN(C(=O)C(c2ccccc2)c2ccccc2)CCN1 [Compound 7, 4-(2,2-diphenylacetyl)piperazin-2-one] | 10 | 9 | 14 | – |
| 185 | 132 | 40.2 | – | – | O=C1CN(C(=O)C=C(c2ccccc2)c2ccccc2)CCN1 [Compound 8, 4-(3,3-diphenylacryloyl)piperazin-2-one] | 17 | 24 | 17 | – |
